Test results from patent US20260295053A1, “COMPOUNDS FOR DEGRADATION AND INHIBITION OF KRAS (G12D) PROTEIN” (Shenzhen Ionova Life Science Co., Ltd., priority 2023, published 2026).

How the values were obtained:
KRAS (G12D) = biological target: T1, KRAS (G12D) (Homo sapiens, UniProt P01116, G12D); test: KRAS (G12D) cellular degradation assay in AsPC-1 cells; format: cell-based; settings: 24 hours, antibody fluorescence (Odyssey CLX), DC50 half-maximal degradation concentration
T1 construct: in-cell western with KRAS G12D antibody after 24 h
T1 sequence (P01116 1-188 isoform P01116-2 G12D): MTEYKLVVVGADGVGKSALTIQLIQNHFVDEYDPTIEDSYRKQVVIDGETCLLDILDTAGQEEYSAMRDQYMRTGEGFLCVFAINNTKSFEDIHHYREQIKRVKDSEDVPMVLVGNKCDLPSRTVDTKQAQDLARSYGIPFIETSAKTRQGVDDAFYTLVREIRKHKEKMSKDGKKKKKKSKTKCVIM
Outline: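 Half-maximal degradation (DC50) and inhibition (IC50) concentrations are fitted from dose-response curves spanning […] to 1.5 nM final. KRAS G12D loss is measured by fluorescent antibody staining with β-actin reference after 24 h; growth is measured by ATP luminescence after a 6-day exposure.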

AsPC-1 cells = test: AsPC-1 cell proliferation assay (CellTiter Glo); format: cell-based; settings: Homo sapiens, ASPC1, 144 h, 6 days
Procedure: ASPC-1 and PK-59 cellular assays ASPC-1 (ATCC cat. CRL-1682) and PK-59 (Nanjing Cobioer, Cat. No. CBP61184) were used in KRAS cellular degradation, pERK inhibition and proliferation assays. The two cell lines were maintained following vendor's instructions. For monitoring KRAS (G12D) cellular degradation and pERK biomarker inhibition, cells were seeded into a 96-well plate with 22,000 and 16,000 cells/well for assays in ASPC-1 and PK-59, respectively. Cells were incubated at 37° C. with 5% CO2 and cell density was monitored until ^~90% confluency was reached. Compounds were serially diluted at a 1:3 ratio and dispensed into each well at final concentrations ranging from […] to 1.5 nM. After incubation for 24 hours, the culture media were removed and the cells were subjected to fixation, permeabilization and blocking (Intercept blocking buffer, Li-cor). For KRAS (G12D) degradation, the cells were treated with primary antibody (KRAS G12D antibody, Cell Signaling Technologies, Cat. No. CST14429) and for β-actin (β-actin mAb, Beyotime, Cat. No. AF-5001), and followed by secondary antibodies, Anti-rabbit IgG (H+L) (DyLight™ 800 4×PEG Conjugate) or IRDye® 680RD Goat anti-Mouse IgG. For pERK inhibition assay, cells were treated with primary antibodies for pERK (Phospho-p44/42 MAPK (Erk1/2) (Thr202/Tyr204) (D13.14.4E) XP® Rabbit mAb, Cell Signaling Technologies, Cat. No. CST-4370) and β-actin (β-actin mAb, Beyotime, Cat. No. AF-5001), and followed by secondary antibodies, Anti-rabbit IgG (H+L) (DyLight™ 800 4×PEG Conjugate) or IRDye® 680RD Goat anti-Mouse IgG. Fluorescence signals were read on Odyssey CLX instrument. For cell proliferation assays, cells were seeded into a 96-well plate at 3,500 and 800 cells/well for assays in ASPC-1 and PK-59, respectively. Cells were incubated at 37° C. with 5% CO2 for overnight. Compounds were serially diluted at a 1:3 ratio and dispensed into each well at final concentrations ranging from […] to 1.5 nM. After incubation for 6 days, cell viability reagent (CellTiter Glo, Promega, Cat. No. G7573) was added to each well and luminescence was recorded on Molecular Devices Spectramax iD3 instrument. IC50, half-maximal inhibitory concentration for pERK inhibition or cell proliferation, and DC50, half-maximal degradation concentration in KRAS (G12D) cellular degradation were determined by fitting the corresponding dose response curves using GraphPad Prism software.
Wherein “A” means the value <10 nM, “B” means 10 nM<the value <100 nM, “C” means 100 nM<the value <1000 nM, and “D” means the value >1000 nM, in which, the value means the value of DC50 or IC50. NT means not tested.

SMILES: CO[C@@H](C)COc1nc(N2C[C@@H]3C[C@H]2CN3)c2cc(C3CC3)c(-c3c(C)c(F)cc4[nH]ncc34)c(OCc3ccc(-c4cn([C@H](C(=O)N5C[C@H](O)C[C@H]5C(=O)N[C@H](C#Cc5ccc(F)cc5F)CO)C(C)C)nn4)cc3)c2n1 [Example 40, (2S,4R)-1-((2S)-2-(4-(4-(((4-((1S,4S)-2,5-diazabicyclo[2.2.1]heptan-2-yl)-6-cyclopropyl-7-(6-fluoro-5-methyl-1H-indazol-4-yl)-2-((S)-2-methoxypropoxy)quinazolin-8-yl)oxy)methyl)phenyl)-1H-1,2,3-triazol-1-yl)-3-methylbutanoyl)-N—((R)-4-(2,4-difluorophenyl)-1-hydroxybut-3-yn-2-yl)-4-hydroxypyrrolidine-2-carboxamide]
- DC50 (KRAS (G12D)): 10 to 100 nM
- IC50 (AsPC-1 cells): 10 to 100 nM

SMILES: CO[C@@H](C)COc1nc(N2C[C@@H]3C[C@H]2CN3)c2cc(C3CC3)c(-c3c(C)c(F)cc4[nH]ncc34)c(OCc3ccc(-c4cn([C@H](C(=O)N5C[C@H](O)C[C@H]5C(=O)N[C@H](C#Cc5scnc5C)CO)C(C)C)nn4)cc3)c2n1 [Example 41, (2S,4R)-1-((2S)-2-(4-(4-(((4-((1S,4S)-2,5-diazabicyclo[2.2.1]heptan-2-yl)-6-cyclopropyl-7-(6-fluoro-5-methyl-1H-indazol-4-yl)-2-((S)-2-methoxypropoxy)quinazolin-8-yl)oxy)methyl)phenyl)-1H-1,2,3-triazol-1-yl)-3-methylbutanoyl)-4-hydroxy-N—((R)-1-hydroxy-4-(4-methylthiazol-5-yl)but-3-yn-2-yl)pyrrolidine-2-carboxamide]
- DC50 (KRAS (G12D)): < 10 nM
- IC50 (AsPC-1 cells): < 10 nM

SMILES: CO[C@@H](C)COc1nc(N2C[C@@H]3C[C@H]2CN3)c2cc(C3CC3)c(-c3c(C)c(F)cc4[nH]ncc34)c(OCc3ccc(-c4cn([C@H](C(=O)N5C[C@H](O)C[C@H]5C(=O)N[C@H](C#Cc5c(F)cccc5F)CO)C(C)C)nn4)cc3)c2n1 [Example 42, (2S,4R)-1-((2S)-2-(4-(4-(((4-((1S,4S)-2,5-diazabicyclo[2.2.1]heptan-2-yl)-6-cyclopropyl-7-(6-fluoro-5-methyl-1H-indazol-4-yl)-2-((S)-2-methoxypropoxy)quinazolin-8-yl)oxy)methyl)phenyl)-1H-1,2,3-triazol-1-yl)-3-methylbutanoyl)-N—((R)-4-(2,6-difluorophenyl)-1-hydroxybut-3-yn-2-yl)-4-hydroxypyrrolidine-2-carboxamide]
- DC50 (KRAS (G12D)): 10 to 100 nM
- IC50 (AsPC-1 cells): 10 to 100 nM

SMILES: CCn1nccc1-c1ccc([C@H](CO)NC(=O)[C@@H]2C[C@@H](O)CN2C(=O)[C@H](C(C)C)n2cc(-c3ccc(COc4c(-c5c(C)c(F)cc6[nH]ncc56)c(C5CC5)cc5c(N6C[C@@H]7C[C@H]6CN7)nc(OC6CCC7(CC6)COC7)nc45)cc3)nn2)cc1 [Example 43, (2S,4R)-1-((2S)-2-(4-(4-(((2-((2-oxaspiro[3.5]nonan-7-yl)oxy)-4-((1S,4S)-2,5-diazabicyclo[2.2.1]heptan-2-yl)-6-cyclopropyl-7-(6-fluoro-5-methyl-1H-indazol-4-yl)quinazolin-8-yl)oxy)methyl)phenyl)-1H-1,2,3-triazol-1-yl)-3-methylbutanoyl)-N—((R)-1-(4-(1-ethyl-1H-pyrazol-5-yl)phenyl)-2-hydroxyethyl)-4-hydroxypyrrolidine-2-carboxamide]
- DC50 (KRAS (G12D)): < 10 nM
- IC50 (AsPC-1 cells): < 10 nM

SMILES: CCn1nccc1-c1ccc([C@H](CO)NC(=O)[C@@H]2C[C@@H](O)CN2C(=O)[C@H](C(C)C)n2cc(-c3ccc(COc4c(-c5c(C)c(F)cc6[nH]ncc56)c(C5CC5)cc5c(N6C[C@@H]7C[C@H]6CN7)nc(OC[C@H](C)OC)nc45)cc3C)nn2)cc1 [Example 44, (2S,4R)-1-((2S)-2-(4-(4-(((4-((1S,4S)-2,5-diazabicyclo[2.2.1]heptan-2-yl)-6-cyclopropyl-7-(6-fluoro-5-methyl-1H-indazol-4-yl)-2-((S)-2-methoxypropoxy)quinazolin-8-yl)oxy)methyl)-2-methylphenyl)-1H-1,2,3-triazol-1-yl)-3-methylbutanoyl)-N—((R)-1-(4-(1-ethyl-1H-pyrazol-5-yl)phenyl)-2-hydroxyethyl)-4-hydroxypyrrolidine-2-carboxamide]
- DC50 (KRAS (G12D)): < 10 nM
- IC50 (AsPC-1 cells): < 10 nM

SMILES: CCn1nccc1-c1ccc([C@H](CO)NC(=O)[C@@H]2C[C@@H](O)CN2C(=O)[C@H](C(C)C)n2cc(-c3ccc(COc4c(-c5c(C)c(F)cc6[nH]ncc56)c(C5CC5)cc5c(N6C[C@@H]7C[C@H]6CN7)nc(OC[C@H](C)OC)nc45)cc3OC)nn2)cc1 [Example 45, (2S,4R)-1-((2S)-2-(4-(4-(((4-((1S,4S)-2,5-diazabicyclo[2.2.1]heptan-2-yl)-6-cyclopropyl-7-(6-fluoro-5-methyl-1H-indazol-4-yl)-2-((S)-2-methoxypropoxy)quinazolin-8-yl)oxy)methyl)-2-methoxyphenyl)-1H-1,2,3-triazol-1-yl)-3-methylbutanoyl)-N—((R)-1-(4-(1-ethyl-1H-pyrazol-5-yl)phenyl)-2-hydroxyethyl)-4-hydroxypyrrolidine-2-carboxamide]
- DC50 (KRAS (G12D)): 10 to 100 nM
- IC50 (AsPC-1 cells): 10 to 100 nM

SMILES: CCc1ncccc1C#C[C@H](CO)NC(=O)[C@@H]1C[C@@H](O)CN1C(=O)[C@H](C(C)C)n1cc(-c2ccc(COc3c(-c4c(C)c(F)cc5[nH]ncc45)c(C4CC4)cc4c(N5C[C@@H]6C[C@H]5CN6)nc(OC[C@H](C)OC)nc34)cc2)nn1 [Example 46, (2S,4R)-1-((2S)-2-(4-(4-(((4-((1S,4S)-2,5-diazabicyclo[2.2.1]heptan-2-yl)-6-cyclopropyl-7-(6-fluoro-5-methyl-1H-indazol-4-yl)-2-((S)-2-methoxypropoxy)quinazolin-8-yl)oxy)methyl)phenyl)-1H-1,2,3-triazol-1-yl)-3-methylbutanoyl)-N—((R)-4-(2-ethylpyridin-3-yl)-1-hydroxybut-3-yn-2-yl)-4-hydroxypyrrolidine-2-carboxamide]
- DC50 (KRAS (G12D)): 10 to 100 nM
- IC50 (AsPC-1 cells): < 10 nM

SMILES: CCn1nccc1-c1ccc([C@H](CO)NC(=O)[C@@H]2C[C@@H](O)CN2C(=O)[C@H](C(C)C)n2cc(-c3ccc(COc4c(-c5c(C)c(F)cc6[nH]ncc56)c(C5CC5)cc5c(N6C[C@@H]7C[C@H]6CN7)nc(OCC(F)(F)COC)nc45)cc3)nn2)cc1 [Example 47, (2S,4R)-1-((2S)-2-(4-(4-(((4-((1S,4S)-2,5-diazabicyclo[2.2.1]heptan-2-yl)-6-cyclopropyl-2-(2,2-difluoro-3-methoxypropoxy)-7-(6-fluoro-5-methyl-1H-indazol-4-yl)quinazolin-8-yl)oxy)methyl)phenyl)-1H-1,2,3-triazol-1-yl)-3-methylbutanoyl)-N—((R)-1-(4-(1-ethyl-1H-pyrazol-5-yl)phenyl)-2-hydroxyethyl)-4-hydroxypyrrolidine-2-carboxamide]
- DC50 (KRAS (G12D)): < 10 nM
- IC50 (AsPC-1 cells): < 10 nM

SMILES: CCn1nccc1-c1ccc([C@H](CO)NC(=O)[C@@H]2C[C@@H](O)CN2C(=O)[C@H](C(C)C)n2cc(-c3ccc(COc4c(-c5c(C)c(F)cc6[nH]ncc56)c(C5CC5)cc5c(N6C[C@@H]7C[C@H]6CN7)nc(OCC(OC)C(F)(F)F)nc45)cc3)nn2)cc1 (stereo partly drawn) [Example 48, (2S,4R)-1-((2S)-2-(4-(4-(((4-((1S,4S)-2,5-diazabicyclo[2.2.1]heptan-2-yl)-6-cyclopropyl-7-(6-fluoro-5-methyl-1H-indazol-4-yl)-2-(3,3,3-trifluoro-2-methoxypropoxy)quinazolin-8-yl)oxy)methyl)phenyl)-1H-1,2,3-triazol-1-yl)-3-methylbutanoyl)-N—((R)-1-(4-(1-ethyl-1H-pyrazol-5-yl)phenyl)-2-hydroxyethyl)-4-hydroxypyrrolidine-2-carboxamide]
- DC50 (KRAS (G12D)): < 10 nM
- IC50 (AsPC-1 cells): < 10 nM
